The values that follow come from paper PMC8773213, “In Vitro Anticancer Activity and Mechanism of Action of an Aziridinyl Galactopyranoside” (Biomedicines, 2021).

Where only a bound is given, the exact number is not on record here.

The test system of series [1] is MRC-5 (Human lung non-malignant cells). In words: Resazurin cell viability assay, MRC-5. Type of series: cell-based. The note with it: MRC5, 72 h, read-out: IC50 (Mean ± SEM, µM), MRC-5. The method, then:
(§1) Exponentially growing cells were seeded in 96-well plates and allowed to attach and grow for 24 h. The cells were then treated with increasing concentrations of the tested drugs. At the end of the treatment period, cell viability was measured with the MTT assay or the resazurin assay, two widely used techniques.
(§2) The resazurin assay is a redox-based colorimetric/fluorometric technique based on the ability of viable cells to reduce the blue compound resazurin into the pink, fluorescent and soluble product resorufin. The amount of resorufin produced is generally proportional to the number of living cells. In this assay, 24 h after seeding, cells were exposed to the tested drugs for 72 h. Then 100 μL resazurin in medium was added to each well (final concentration of 10 μg/mL) and, one hour later the fluorescence intensity was measured at 530/590 nm (excitation/emission) using a fluorescence microplate reader.
(§3) In both assays, cell viability was expressed as percentage compared to untreated cells. Results were expressed as the means ± standard error of the mean (SEM). All data are from at least three independent experiments.
Background: The colour change of resazurin is a common sign of viable cells or microbes.

The test system of series [2] is VH10 (Human skin non-malignant cells). In words: Resazurin cell viability assay, VH10. The format is cell-based. The note with it: 72 h, read-out: IC50 (Mean ± SEM, µM), VH10. How it is done: as §1, §2, §3
The subject of series [3] is HeLa (Human cervical carcinoma cells). The series can be described thus: Resazurin cell viability assay, HeLa. The format is cell-based. The settings on record: 72 h, read-out: IC50 (Mean ± SEM, µM), HeLa. How it is done: as §1, §2, §3
The subject of series [4] is HepG2 (Human hepatocellular carcinoma cells). In words: Resazurin cell viability assay, HepG2. The format is cell-based. The settings on record: 72 h, read-out: IC50 (Mean ± SEM, µM), HepG2. The method, then: as §1, §2, §3
Series [5] has as its system HL-60 (Human acute promyelocytic leukemia cells). In words: Resazurin cell viability assay, HL-60. Type of series: cell-based. The note with it: 72 h, read-out: IC50 (Mean ± SEM, µM), HL-60. How it is done:
as §1, §2, §3

Series [6] has as its system NB4 (Human acute promyelocytic leukemia cells). In words: Resazurin cell viability assay, NB4. The format is cell-based. The settings on record: 72 h, read-out: IC50 (Mean ± SEM, µM), NB4. How it is done:
as §1, §2, §3

Series [7] relates to PC3 (Human prostate cancer cells). In words: Resazurin cell viability assay, PC3. Type of series: cell-based. The settings on record: 72 h, read-out: IC50 (Mean ± SEM, µM), PC3. How it is done:
as §1, §2, §3

Series [8] relates to SW480 (Human colon adenocarcinoma cells). In words: Resazurin cell viability assay, SW480. Type of series: cell-based. The settings on record: 72 h, read-out: IC50 (Mean ± SEM, µM), SW480. How it is done:
as §1, §2, §3

The subject of series [9] is U2OS (Human osteosarcoma cells). The series can be described thus: Resazurin cell viability assay, U2OS. The settings on record: 72 h, read-out: IC50 (Mean ± SEM, µM), U2OS. Type of series: cell-based. The method, then:
as §1, §2, §3

Series [10] relates to BJ-hTERT (hTERT-immortalized skin non-malignant BJ cells). The series can be described thus: Resazurin cell viability assay, BJ-hTERT. Type of series: cell-based. The settings on record: Homo sapiens, 72 h, read-out: IC50 (Mean ± SEM, µM), BJ-hTERT. The method, then:
as §1, §2, §3

The test system of series [11] is BJ-SV40T (SV40T-transformed BJ-hTERT cells). The series can be described thus: Resazurin cell viability assay, BJ-SV40T. Type of series: cell-based. The note with it: Homo sapiens, 72 h, read-out: IC50 (Mean ± SEM, µM), BJ-SV40T. How it is done:
as §1, §2, §3

For series [12], the system named is BJ-RASV12 (HRASV12-transformed BJ-SV40T cells). The series can be described thus: Resazurin cell viability assay, BJ-RASV12. The format is cell-based, human. The settings on record: 72 h. How it is done:
as §1, §2, §3

Series [13] concerns cancer cell lines versus MRC-5 and VH10 normal cell lines. The series can be described thus: Resazurin assay, panel of cancer cells versus normal cells. The note with it: 72 h. Type of series: cell-based, human. The method, then:
as §1, §2, §3
Next, we evaluated the cytotoxic activity of AzGalp in cancer cell lines derived from solid tumors (HeLa, PC3, U2OS, HepG2 and SW480) and from hematological malignancies (NB4 and HL-60). To study the selectivity against cancer cells, MRC-5 and VH10 cells were used as normal cell lines; 5-FU was used as a positive control. All cells were treated with AzGalp or 5-FU for 72 h and cell viability was evaluated with the resazurin assay. This assay was used to determine cell viability instead of the MTT assay because the HL60 and NB4 cell lines grow in suspension. […] Leukemia cell lines were approximately 15 times more sensitive than normal cells to the cytotoxicity of our aziridine.

For series [14], the system named is A549 cells. In words: Glycolysis inhibition (glucose consumed, lactate produced). The settings on record: A549, 8 h. Type of series: cell-based, human. The method, then: Inhibition of glycolysis was determined by measuring glucose consumed (initial product of glycolysis) and lactate produced (final product of glycolysis) in untreated and treated cells. Cells were seeded in 6-well plates at a density of 10^6 cells/well and were allowed to attach for a few hours before treatment with the tested compounds for 8 h. After treatment, medium was recollected and glucose and lactate concentrations were determined using the Accutrend® Plus analyzer together with Accutrend glucose strips and BM-Lactate strips (Roche Diagnostics, Barcelona, Spain). After calibrating the instrument with glucose and lactate calibration strips, test strips were used to determine glucose and lactate levels through colorimetric oxidase mediator reactions according to the manufacturer’s instructions. The results are expressed as percentage of glucose consumption and percentage of lactate production in relation to untreated cells. Data were averaged from two independent experiments and shown as mean ± SEM.

Series [15] relates to A549 cells. The format is cell-based. The note with it: A549, 48 h, antioxidant added 1 h before; MTT. The method, then:
as §1
In the case of the MTT assay, this technique detects viable cells using the ability of these cells to reduce the yellow tetrazolium MTT to an insoluble colored formazan product. Subsequently, this product was solubilized and analyzed by spectrophotometry. Dead cells cannot reduce the MTT into the colored formazan product. Briefly, 24 h after plating, cells were treated with the tested compounds for 48 h; except in experiments with DNA repair-proficient and -deficient cell lines, in which cells were only exposed for 24 h to drugs and allowed to grow for an additional 48 h in drug-free medium to allow them to repair possible DNA damage induced by the tested drugs. After the treatment period, the medium was removed, the cells were washed once with PBS and 125 μL MTT (1 mg/mL in medium) was added to each well. Plates were incubated for 2–4 h and then 80 μL 20% SDS in 0.02 M HCl was added to each well. Finally, plates were incubated overnight at 37 °C and optical densities were measured at 540 nm using an absorbance spectrophotometer microplate reader.
as §3

Series [16] deals with AA8 cells. In words: Comet assay (DNA damage). The format is cell-based, Chinese hamster. The note with it: 1 mM, 4 h. The text has this:
The single cell gel electrophoresis assay, also known as comet assay, is a widely used technique for the study of levels of damage in cellular DNA. In this assay, individual cells embedded in agarose are lysed, electrophoresed, stained with a fluorescent dye and examined under an epifluorescence microscope. […] The quantity of DNA present in the tail is indicative of DNA damage. This assay has been described in detail by Singh et al.. We followed this protocol with minor modifications previously described. Briefly, standard slides were immersed in 1% normal melting agarose at 55 °C, left to allow the agarose to solidify and kept at 4 °C until use. Cells were seeded in 6-well plates, allowed to grow for 24 h and then cells were exposed to AzGalp or CTP (positive control) for 4 h. At the end of the treatment, cells were harvested by trypsinization, washed with PBS and resuspended in PBS at a concentration of approximately 1 million cells/mL; 10 µL cell suspension was mixed with 85 μL of low-melting agarose (LMA) at 37 °C and the mixture was quickly added to the slides with the first layer of agarose, spread using a coverslip and kept at 4 °C for 8 min to allow the LMA to solidify. The coverslips were then removed and another layer of 100 μL of LMA at 37 °C was added, covered with a coverslip and allowed to solidify at 4 °C for 8 min. After removing the coverslips, the slides were incubated in the dark for 1 h at 4 °C in a lysis buffer (pH 10.0) containing 0.25 M NaOH, 10% DMSO, 1% Triton X-100, 10 mM Tris-HCl, 100 mM Na2-EDTA and 2.5 M NaCl. Next, alkaline denaturation with electrophoretic buffer (300 mM NaOH and 1 mM Na2-EDTA) was carried out in an electrophoresis chamber for 20 min and then electrophoresis was performed at 1 V/cm for 20 min. […] DNA damage levels were quantified for each cell and expressed as percent of DNA in the tail and as the tail moment (defined as the product of the tail length and the fraction of total DNA in the tail). The results were averaged from two independent experiments and expressed as mean ± SEM.

Series [17] relates to UV4 and AA8 cells. The series can be described thus: Clonogenic survival assay. The format is cell-based, Chinese hamster. The settings on record: 3 µM, 24 h, then colonies in drug-free medium. How it is done: Cell survival after treatment was determined by clonogenic assay. AA8 and UV4 cells were seeded in 6 cm Petri dishes 4 h prior to treatment for 24 h. After that, drugs were removed and cells were allowed to form colonies for eight days. The colonies were then stained with 0.4% methylene blue in methanol for 15 min. Surviving colonies made up of more than 50 cells per colony were counted. Results were represented as percentage of survival referred to untreated cells.

On to `O=c1[nH]cc(F)c(=O)[nH]1` [5-FU, 5-fluorouracil, reference compound], for which the IC50 (as a rule, the concentration that inhibits the measured activity by half) in [1] was greater than 1000 µM; in [2], greater than 1000 µM; in [3], 66.3 ± 27 µM; in [4], 0.6 ± 0.3 µM; in series [5], 0.9 ± 0.8 µM; in [6], 2.5 ± 0.3 µM. Besides, the IC50 was 1.5 ± 0.3 µM in series [7]; 2.9 ± 1.3 µM in series [8]; 6.4 ± 0.7 µM in series [9]; 2.4 ± 0.5 µM in [10]; 5.4 ± 0.7 µM in [11]; 3 ± 1.4 µM in series [12] (Homo sapiens, resazurin assay, read-out: IC50 (Mean ± SEM, µM), BJ-RASV12). In addition, in series [12] (resazurin), the “Sensitivity of BJ-RASV12 malignant cells relative to BJ-hTERT non-malignant cells” value is listed as “did not observe this selectivity”. The “Viability of leukemia cells” value in series [13] (HL60 and NB4, concentrations between 10 and 100 µM) was “higher than 20%”. Also, the “Viability of normal cells” value in series [13] (MRC-5 and VH10, concentrations between 10 and 100 µM) is reported as “showed cytotoxicity against these cells”.
For `O=C(O)C(Cl)Cl` [DCA, dichloroacetate, reference compound], in series [14], the “Glycolytic activity (glucose consumption and lactate production)” value is “reduced lactate production and glucose consumption”.
Consider `OO` [H2O2, hydrogen peroxide, reference compound], for which, in series [15], the “Effect of MnTMPyP on cytotoxicity” value is “decreased in the presence of the three antioxidants”, the “Effect of NAC on cytotoxicity” value is “decreased in the presence of the three antioxidants” and the “Effect of catalase on cytotoxicity” value is “decreased in the presence of the three antioxidants”.
Consider `COc1cc(C(=O)O)cc(OC)c1O` [Syringic acid, reference compound], for which the “DNA damage in comet assay” value in series [16] is recorded as “does not induce DNA damage”.
With `COc1cc([C@@H]2c3cc4c(cc3[C@@H](O[C@@H]3O[C@@H]5CO[C@@H](C)O[C@H]5[C@H](O)[C@H]3O)[C@H]3COC(=O)[C@H]23)OCO4)cc(OC)c1O` [etoposide, reference compound], the “Cell survival, UV4 versus AA8 (clonogenic assay)” value in [17] was “UV4 cells were more sensitive”.
